Source: PubChem BioAssay AID248 (DTP/NCI, 2004)
Toxic doses and inconclusive results are not listed.

System: L1210 leukemia ip in BDF1 mice, survival T/C
Test: NCI In Vivo Anticancer Drug Screen. Data for tumor model L1210 Leukemia (intraperitoneal) in B6D2F1 (BDF1) mice
Conditions: endpoint: mean survival time, higher = longer survival
Summary of the method: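 Each compound was tested against a transplantable tumor grown in mice. The endpoint was survival, with treated animals benchmarked against vehicle controls as a simple ratio.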

[1] = dose: 100.0 mg/kg/injection, schedule: Q01DX001 (ip), vehicle: carboxymethylcellulose (CMC)
[2] = dose: 200.0 mg/kg/injection, schedule: Q01DX001 (ip), vehicle: carboxymethylcellulose (CMC)
[3] = dose: 100.0 mg/kg/injection, schedule: Q04DX003 (ip), vehicle: saline with Tween-80
[4] = dose: 200.0 mg/kg/injection, schedule: Q04DX003 (ip), vehicle: saline with Tween-80
[5] = dose: 400.0 mg/kg/injection, schedule: Q04DX003 (ip), vehicle: saline with Tween-80
[6] = dose: 100.0 mg/kg/injection, schedule: Q01DX009 (ip), vehicle: Klucel (hydroxypropylcellulose) (HPC)
[7] = dose: 100.0 mg/kg/injection, schedule: Q04DX003 (ip), vehicle: Klucel (hydroxypropylcellulose) (HPC)
[8] = dose: 200.0 mg/kg/injection, schedule: Q01DX009 (ip), vehicle: Klucel (hydroxypropylcellulose) (HPC)
[9] = dose: 200.0 mg/kg/injection, schedule: Q04DX003 (ip), vehicle: Klucel (hydroxypropylcellulose) (HPC)
[10] = dose: 400.0 mg/kg/injection, schedule: Q01DX009 (ip), vehicle: Klucel (hydroxypropylcellulose) (HPC)
[11] = dose: 400.0 mg/kg/injection, schedule: Q04DX003 (ip), vehicle: Klucel (hydroxypropylcellulose) (HPC)
[12] = dose: 100.0 mg/kg/injection, schedule: Q01DX001 (ip), vehicle: saline
[13] = dose: 400.0 mg/kg/injection, schedule: Q01DX001 (ip), vehicle: carboxymethylcellulose (CMC)

SMILES: CC(C)(CCCCC(C)(C)NC(=O)Nc1ccc(Cl)c(Cl)c1)NC(=O)Nc1ccc(Cl)c(Cl)c1
- T/C [1]: 92 % of control
- T/C [2]: 87 % of control

SMILES: Nc1ccc(OCCCCNC(=O)c2ccc(S(=O)(=O)F)cc2)c(Cl)c1
- T/C (dose: 100.0 mg/kg/injection, schedule: Q01DX009 (ip), vehicle: saline with Tween-80): 98 % of control
- T/C [3]: 97 % of control
- T/C (dose: 200.0 mg/kg/injection, schedule: Q01DX009 (ip), vehicle: saline with Tween-80): 102 % of control
- T/C [4]: 97 % of control
- T/C [5]: 97 % of control

SMILES: COc1ccc(-c2cc3c(OC)ccc(OC)c3[nH]2)cc1
- T/C (dose: 100.0 mg/kg/injection, schedule: Q04DX002 (ip), vehicle: Klucel (hydroxypropylcellulose) (HPC)): 93 % of control
- T/C (dose: 200.0 mg/kg/injection, schedule: Q04DX002 (ip), vehicle: Klucel (hydroxypropylcellulose) (HPC)): 102 % of control
- T/C (dose: 400.0 mg/kg/injection, schedule: Q04DX002 (ip), vehicle: Klucel (hydroxypropylcellulose) (HPC)): 93 % of control

SMILES: CCN=C(c1ccc(NC(=O)c2ccc(C(=O)Nc3ccc(C(=NCC)N(CC)C(=O)NC)cc3)cc2)cc1)N(CC)C(=O)NC
- T/C (dose: 6.25 mg/kg/injection, schedule: Q01DX015 (ip), vehicle: methylcellulose (MC)): 93 % of control
- T/C (dose: 12.5 mg/kg/injection, schedule: Q01DX015 (ip), vehicle: methylcellulose (MC)): 100 % of control

SMILES: Cc1ccc(C(C)(C)CP(c2ccccc2)c2ccccc2)cc1
- T/C (dose: 25.0 mg/kg/injection, schedule: Q04DX002 (ip), vehicle: saline with Tween-80): 95 % of control
- T/C (dose: 50.0 mg/kg/injection, schedule: Q04DX002 (ip), vehicle: saline with Tween-80): 92 % of control
- T/C (dose: 200.0 mg/kg/injection, schedule: Q04DX002 (ip), vehicle: saline with Tween-80): 89 % of control

SMILES: c1ccc(-c2cnoc2-c2ccccc2)cc1
- T/C [6]: 107 % of control
- T/C [7]: 111 % of control
- T/C [8]: 106 % of control
- T/C [9]: 95 % of control
- T/C [10]: 102 % of control
- T/C [11]: 101 % of control

SMILES: CCCCCCCNC1=C(C)C(=O)C(NCCCCCCC)=C(C)C1=O
- T/C [1]: 96 % of control
- T/C [12]: 93 % of control
- T/C [2]: 96 % of control
- T/C (dose: 200.0 mg/kg/injection, schedule: Q01DX001 (ip), vehicle: saline): 96 % of control
- T/C [13]: 89 % of control
- T/C (dose: 400.0 mg/kg/injection, schedule: Q01DX001 (ip), vehicle: saline): 93 % of control

SMILES: CC(=O)n1c(O)c(N=Nc2ccccc2[N+](=O)[O-])c2ccccc21
- T/C (dose: 100.0 mg/kg/injection, schedule: Q01DX001 (ip), vehicle: other): 92 % of control
- T/C (dose: 200.0 mg/kg/injection, schedule: Q01DX001 (ip), vehicle: other): 93 % of control
- T/C (dose: 400.0 mg/kg/injection, schedule: Q01DX001 (ip), vehicle: other): 98 % of control

SMILES: CCOC(=O)Nc1cc(NCCCCc2ccccc2)c(N)c(N)n1
- T/C (dose: 100.0 mg/kg/injection, schedule: Q01DX001 (ip), vehicle: saline with Tween-80): 101 % of control
- T/C (dose: 200.0 mg/kg/injection, schedule: Q01DX001 (ip), vehicle: saline with Tween-80): 102 % of control

SMILES: Cc1cccc(C)c1NC(=O)Nc1ccc(CCO)cc1
- T/C [6]: 97 % of control
- T/C [8]: 98 % of control

SMILES: CCC(C)(CC=C(C)C)c1ccncc1 (stereo unspecified)
- T/C [12]: 98 % of control

SMILES: CC(=O)N/N=C/C=C/c1ccccc1
- T/C (dose: 25.0 mg/kg/injection, schedule: Q01DX009 (ip), vehicle: saline with Tween-80): 95 % of control
- T/C (dose: 50.0 mg/kg/injection, schedule: Q01DX009 (ip), vehicle: saline with Tween-80): 103 % of control

SMILES: CC(=O)OC1(C)CC(C)C(O)C(C(O)CC2CC(=O)NC(=O)C2)C1 (stereo unspecified)
- T/C (dose: 5.0 mg/kg/injection, schedule: Q01DX001 (ip), vehicle: water): 98 % of control
- T/C (dose: 10.0 mg/kg/injection, schedule: Q01DX001 (ip), vehicle: water): 107 % of control
- T/C (dose: 20.0 mg/kg/injection, schedule: Q01DX001 (ip), vehicle: water): 112 % of control

SMILES: CCOC1(OCC)CC2C(=O)CCCC21OC(C)=O (stereo unspecified)
- T/C (dose: 75.0 mg/kg/injection, schedule: Q04DX002 (ip), vehicle: saline): 111 % of control
- T/C (dose: 150.0 mg/kg/injection, schedule: Q04DX002 (ip), vehicle: saline): 105 % of control
- T/C (dose: 300.0 mg/kg/injection, schedule: Q04DX002 (ip), vehicle: saline): 101 % of control

SMILES: O=CC(O)C(O)C(O)CO (stereo unspecified) (tested in a mixture with another compound)
- T/C (dose: 100.0 mg/kg/injection, schedule: Q01DX001 (ip), vehicle: Klucel (hydroxypropylcellulose) (HPC)): 94 % of control
- T/C (dose: 200.0 mg/kg/injection, schedule: Q01DX001 (ip), vehicle: Klucel (hydroxypropylcellulose) (HPC)): 88 % of control
- T/C (dose: 400.0 mg/kg/injection, schedule: Q01DX001 (ip), vehicle: Klucel (hydroxypropylcellulose) (HPC)): 88 % of control

SMILES: CCSCCC(N)C(=O)O (stereo unspecified)
- T/C (dose: 10.25 mg/kg/injection, schedule: Q01DX Z (ip), vehicle: carboxymethylcellulose (CMC)): 97 % of control
- T/C (dose: 18.75 mg/kg/injection, schedule: Q01DX Z (ip), vehicle: carboxymethylcellulose (CMC)): 91 % of control
- T/C (dose: 20.5 mg/kg/injection, schedule: Q01DX Z (ip), vehicle: carboxymethylcellulose (CMC)): 113 % of control
- T/C (dose: 37.5 mg/kg/injection, schedule: Q01DX Z (ip), vehicle: carboxymethylcellulose (CMC)): 93 % of control
- T/C (dose: 41.0 mg/kg/injection, schedule: Q01DX Z (ip), vehicle: carboxymethylcellulose (CMC)): 103 % of control
- T/C (dose: 75.0 mg/kg/injection, schedule: Q01DX Z (ip), vehicle: carboxymethylcellulose (CMC)): 96 % of control
- T/C (dose: 82.0 mg/kg/injection, schedule: Q01DX Z (ip), vehicle: carboxymethylcellulose (CMC)): 103 % of control
- T/C [1]: 102 % of control
- T/C (dose: 150.0 mg/kg/injection, schedule: Q01DX Z (ip), vehicle: carboxymethylcellulose (CMC)): 100 % of control
- T/C [2]: 107 % of control
- T/C [13]: 95 % of control

SMILES: CCOP(=S)(OCC)SCc1ccc(C)cc1
- T/C [3]: 98 % of control
- T/C [4]: 103 % of control
- T/C [5]: 110 % of control

SMILES: Nc1ncnc2nc(Cc3ccccc3)[nH]c12
- T/C (dose: 100.0 mg/kg/injection, schedule: Q01DX001 (ip), vehicle: gum acacia): 95 % of control
- T/C (dose: 200.0 mg/kg/injection, schedule: Q01DX001 (ip), vehicle: gum acacia): 109 % of control

SMILES: O=C(CNC(=O)Nc1ccc(C2=NCCN2)cc1)Nc1ccc(C2=NCCN2)cc1
- T/C (dose: 4.5 mg/kg/injection, schedule: Q01DX Z (ip), vehicle: carboxymethylcellulose (CMC)): 117 % of control
- T/C (dose: 9.0 mg/kg/injection, schedule: Q01DX Z (ip), vehicle: carboxymethylcellulose (CMC)): 159 % of control
- T/C (dose: 18.0 mg/kg/injection, schedule: Q01DX Z (ip), vehicle: carboxymethylcellulose (CMC)): 247 % of control
- T/C (dose: 36.0 mg/kg/injection, schedule: Q01DX Z (ip), vehicle: carboxymethylcellulose (CMC)): 192 % of control
- T/C (dose: 50.0 mg/kg/injection, schedule: Q01DX Z (oral), vehicle: water): 98 % of control
- T/C (dose: 100.0 mg/kg/injection, schedule: Q01DX Z (oral), vehicle: water): 115 % of control
- T/C (dose: 200.0 mg/kg/injection, schedule: Q01DX Z (oral), vehicle: water): 119 % of control
- T/C (dose: 400.0 mg/kg/injection, schedule: Q01DX Z (oral), vehicle: water): 150 % of control

SMILES: O=C(Nc1ccccc1)OC(C[N+](=O)[O-])C(Cl)(Cl)Cl (stereo unspecified)
- T/C (dose: 75.0 mg/kg/injection, schedule: Q01DX001 (ip), vehicle: carboxymethylcellulose (CMC)): 98 % of control

SMILES: Cc1ccc(NS(=O)(=O)c2ccc(F)cc2)cc1C
- T/C [6]: 95 % of control
- T/C [7]: 95 % of control
- T/C [8]: 95 % of control
- T/C [9]: 105 % of control
- T/C [10]: 97 % of control
- T/C [11]: 101 % of control

SMILES: CS(=O)(=O)OCC1CCCCO1 (stereo unspecified)
- T/C [6]: 91 % of control
- T/C [7]: 101 % of control
- T/C [8]: 102 % of control
- T/C [9]: 102 % of control
- T/C [10]: 106 % of control
- T/C [11]: 111 % of control

SMILES: CC1CCCCC1C(=O)N1CCCCC1 (stereo unspecified)
- T/C (dose: 100.0 mg/kg/injection, schedule: Q04DX002 (ip), vehicle: saline): 117 % of control
- T/C (dose: 200.0 mg/kg/injection, schedule: Q04DX002 (ip), vehicle: saline): 96 % of control
- T/C (dose: 400.0 mg/kg/injection, schedule: Q04DX002 (ip), vehicle: saline): 101 % of control
